Legend:
[1] = molecular target: T1, NLK (Homo sapiens, UniProt Q9UBE8); assay: Kinase Profiling of SD208; format: biochemical; settings: 10 μM; data not shown
T1 sequence (Q9UBE8 1-527): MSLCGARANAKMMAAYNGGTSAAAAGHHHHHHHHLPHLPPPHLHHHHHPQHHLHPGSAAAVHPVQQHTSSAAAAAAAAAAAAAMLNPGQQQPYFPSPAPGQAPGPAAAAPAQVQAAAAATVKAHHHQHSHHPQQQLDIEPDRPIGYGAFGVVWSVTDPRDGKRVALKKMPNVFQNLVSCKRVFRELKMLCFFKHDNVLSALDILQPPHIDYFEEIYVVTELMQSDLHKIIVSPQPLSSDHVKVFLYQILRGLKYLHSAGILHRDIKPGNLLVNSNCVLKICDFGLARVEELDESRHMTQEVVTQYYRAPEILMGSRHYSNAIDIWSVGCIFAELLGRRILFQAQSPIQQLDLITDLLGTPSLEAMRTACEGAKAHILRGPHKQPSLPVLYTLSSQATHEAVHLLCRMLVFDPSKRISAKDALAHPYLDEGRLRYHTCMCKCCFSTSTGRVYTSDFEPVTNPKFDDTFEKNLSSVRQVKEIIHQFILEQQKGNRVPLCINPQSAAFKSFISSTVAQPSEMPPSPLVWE

[2] = test system: SATB1 3′UTR; assay: Luciferase alone or fused to SATB1 3′UTR in K562 cells; format: cell-based, human; settings: K562, 0.5-50 mM, 72 hrs
Description: FIG. 12. NLK 3′UTR facilitates metformin-mediated NLK suppression. (Panel A) K562 cells stabling expressing luciferase alone (top portion), luciferase expressed behind a minimal promoter and the NLK proximal promoter (2nd portion), luciferase immediately upstream of the human NLK 3′UTR (3rd portion) or luciferase with the SATB1 3′UTR (bottom portion) were grown in the presence of 0, 0.5, 5.0 or 50.0 mM of metformin for 72 hrs. Cell were pelleted and either processed for luciferase assay (left portion) or western blot analysis of endogenous NLK (upper right portion) or GAPDH (lower right portion). (Panel B) Luciferase immediately upstream of the human (upper), murine (middle) and zebrafish (lower) NLK 3′UTR were transiently transfected into human K562 (left) and cultured with indicated concentrations of metformin for 72 hrs. Lysates were assessed for luciferase activity and endogenous NLK and GAPDH protein expression by Western blotting. […] Statistics: two-tailed Student's t test, significant *P<0.05
In parallel with measuring luciferase activity, the response of endogenous NLK protein expression was monitored by Western blot analysis with a high degree of correlation.

[3] = test system: BFU-E erythroid and CFU-GM myeloid colonies; assay: Colony assays in methylcellulose (BFU-E, CFU-GM); format: cell-based, human; settings: metformin
Description: FIG. 9. Metformin improves expansion of CD235+ erythroblasts and BFU-E erythroid colony formation in human RPS19- and RPL11-insufficiency from CB CD34+ progenitors. (Panel A). CD34+ HSPCs were transduced with shRNA against control (shLuc), RPS19 (shRPS19) or RPL11 (shRPL11) and after sorting, were differentiated for 14 days in the presence or absence of 50 mM metformin. Cells were counted and the percentage expressing CD235+ erythroid (left) and CD11b+ myeloid (right) was determined by flow cytometry. Obtained values were multiplied to give an overall number that was normalized to the untreated control (grey columns). Values are presented as a percentage of the untreated control. (Panel B) Direct comparison between metformin treated and untreated cultures is facilitated by normalizing the metformin-treated values to the untreated values in control, RPS19- and RPL11-insufficient groups. Values are expressed as a fold induction relative to untreated. (Panel C) Transduced and sorted CD34+ progenitors were cultured in methylcellulose in the presence or absence of metformin for 16 days and BFU-E erythroid (left) and CFU-GM myeloid (right) colonies scored. Values are represented as the percentage of colonies induced in untreated controls (grey columns). (Panel D). To directly compare the effect of metformin in each group, metformin-treated cultures were normalized to untreated cultures and are expressed as a fold induction of the untreated control. (Panel E) Representative images of BFU-E colonies at day 14.Scale bar=[…]. […] Statistics: two-tailed Student's t test, significant *P<0.05
Sorted hematopoietic cells were seeded in methylcellulose medium containing IL-3, stem cell factor, granulocyte macrophage colony-stimulating factor, and erythropoietin (H4434; […] Technologies) in triplicate, with 1000 cells per plate. Erythroid (burst-forming unit erythroid) and myeloid (colony-forming unit, granulocyte-macrophage) colonies were counted 14-18 days later. In some cases, 3000 (shRPL11) or 5000 (shRPS19+TGFβ) cells per plate were added to ensure enough colonies for robust statistical analysis.
Sorted HSPCs were seeded in cytokine-containing methylcellulose medium (H4434; […] Technologies) in triplicate, with 1000 cells per plate. Erythroid (burst-forming unit erythroid) and myeloid (colony-forming unit, granulocyte-macrophage) colonies were counted 14-18 days later.

[4] = test system: NLK; assay: NLK expression and NLK activity in murine progenitors; format: cell-based, mouse; settings: control, RPS19- or RPL11-insufficient mice, metformin
Description: FIG. 11. […] Statistics: two-tailed Student's t test, significant *P<0.05

[5] = test system: NLK; assay: Endogenous NLK protein in K562 cells (Western blot); format: cell-based, human; settings: K562, miRNA mimetics or metformin, 72 hrs
Description: FIG. 14. Metformin-mediated upregulation of miR-26a in human progenitors suppresses NLK expression. (Panel A) Human CD34+ (upper) and murine Lin-Kit+ (lower) progenitors were differentiated for 8 days in the presence or absence of metformin and the levels of indicated miRNAs were assessed by qRT-PCR. (Panel B) K562 cells stably expressing the luciferase gene coupled to the NLK 3′UTR were mock transfected, transfected with indicated miRNA mimetics, or treated with metformin, and cultured in the presence or absence of metformin for 72 hrs. After lysis, luciferase activity was determined and endogenous NLK and GAPDH protein expression was analyzed by Western blot. (Panel C) K562 cells were mock transfected, or transfected with either miR-34 or miR-26 sponges, prior to being left untreated or treated with metformin for 72 hrs. Lysed cells were subjected to luciferase assay and western blotting to examine NLK and GAPDH protein expression. […] Statistics: two-tailed Student's t test, significant *P<0.05
NLK kinase activity was performed as published (5). For Western blotting, antibodies against NLK (#AB97642; Abcam; 1:1000 dilution) and GAPDH (#MAB374; Millipore; 1:10000) were used according to manufacturer's instructions.

SMILES: Fc1ccc(Cl)cc1-c1nc(Nc2ccncc2)c2nccnc2n1 [SD208]
- NLK kinase activity inhibited [1]: 96.8%

SMILES: CN(C)C(=N)N=C(N)N [metformin]
- metformin sensitivity of luciferase alone or fused with SATB1 3′UTR [2]: did not result in metformin sensitivity
- fold increase of BFU-E colonies ([3]; RPL11-insufficiency): 2.2 fold
- BFU-E erythroid colonies, % of vector control (shLuc) ([3]; RPL11-insufficiency, 8.2% untreated): 14.3%
- fold increase of BFU-E colonies ([3]; RPS19-insufficiency): 2.9 fold
- BFU-E erythroid colonies, % of vector control (shLuc) ([3]; RPS19-insufficiency, 7.7% untreated): 16.3%
- size of BFU-E colonies ([3]; RPS19-insufficient progenitors): only modestly improve
- effect on CFU-GM colonies [3]: did not affect
- impact on NLK activity [4]: no impact
- impact on NLK expression [4]: no impact
- reduction of endogenous NLK protein expression [5]: 68.6%

From patent publication US12403132B2, “Methods of treating bone marrow failure syndromes and compositions for use in the same” (The Board of Trustees of the Leland Stanford Junior …, priority 2020, dated 2025)
